Results as given in patent publication US9724351B2, “Compounds for the treatment of paramoxyvirus viral infections” (priority 2012, dated 2017).

Legend:
[1] = test system: Respiratory Syncytial Virus (RSV) long strain (ATCC#VR-26); test: RSV Antiviral Assay (CPE reduction assay); type: cell-based; settings: human respiratory syncytial virus, 120 h; HEp-2 cells infected with RSV long strain, 5 days, CCK-8 readout; bins (Table 2: less than 1 μM; Table 3: equal to or higher than 1 μM and less than 50 μM); read-out: 50% effective concentration (EC50)
In short: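 Cytopathic-effect protection measured after 5 days at 37 °C, 5% CO2 via CCK-8 dehydrogenase readout at 450 nm (630 nm reference), EC50 regressed from mean O.D. Host HEp-2 cells received RSV long strain at 100 TCID50/well; compound 9-point ⅓ series starting 100 μM or 1 μM, 1% DMSO, duplicate wells.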

[2] = Cytotoxicity Determination; type: cell-based; settings: human, HEp-2 cells, without addition of virus, CCK-8 readout, bins (Table 4: greater than 100 μM; Table 5: equal to or less than 100 μM and greater than 10 μM), read-out: 50% cytotoxicity concentration (CC50)
In short: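 CC50 was derived from CCK-8 optical density after a 3-4 h reagent incubation. Before that, cells without virus had been treated for 5 days at 37 °C, 5% CO2 with compound at seven ½-step final concentrations from 100 μM, in duplicate wells.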

Row | Structure (SMILES) | EC50 [1] [µM] | CC50 at 5 days [2] [µM]
1 | COc1ccc(C(=O)NCC(=O)c2ccc(OC)c(-c3cccc4ncccc34)n2)cc1OC [Compound 1519] | 1 to 50 | 10 to 100
2 | COc1ccc(C(=O)NCC(=O)c2ccc(OC)c(-c3cncnc3)n2)cc1OC [Compound 1520] | 1 to 50 | > 100
3 | COc1ccc(C(=O)NCC(=O)c2ccc(OC)c(-c3ccc4[nH]c(C)nc4c3)n2)cc1OC [Compound 1521] | 1 to 50 | 10 to 100
4 | COc1ccc(C(=O)NCC(=O)c2ccc(OC)c(-c3cccc4c(F)cccc34)n2)cc1OC [Compound 1522] | 1 to 50 | 10 to 100
5 | COc1ccc(C(=O)NCC(=O)c2ccc(OC)c(-c3ccc(N4CCCCC4)cc3)n2)cc1OC [Compound 1524] | 1 to 50 | > 100
6 | COc1ccc(C(=O)NCC(=O)c2ccc(OC)c(-c3ccc(Cl)cc3)n2)cc1OC [Compound 1525] | < 1 | > 100
7 | COc1ccc(C(=O)NCC(=O)c2ccc(OC)c(-c3cccc(F)c3F)n2)cc1OC [Compound 1526] | 1 to 50 | > 100
8 | COc1ccc(C(=O)NCC(=O)c2ccc(OC)c(-c3cccc(F)c3)n2)cc1OC [Compound 1527] | 1 to 50 | > 100
9 | COc1ccc(C(=O)NCC(=O)c2ccc(OC)c(-c3ccccc3F)n2)cc1OC [Compound 1528] | 1 to 50 | > 100
10 | COc1ccc(C(=O)NCC(=O)c2ccc(OC)c(-c3ccc(F)c(Cl)c3)n2)cc1OC [Compound 1529] | < 1 | > 100
11 | COc1ccc(C(=O)NCC(=O)c2ccc(OC)c(-c3ccc(C)cc3)n2)cc1OC [Compound 1530] | 1 to 50 | > 100
12 | COc1ccc(C(=O)NCC(=O)c2ccc(OC)c(-c3ccc(C(F)(F)F)cc3)n2)cc1OC [Compound 1531] | < 1 | > 100
13 | COc1ccc(C(=O)NCC(=O)c2ccc(OC)c(-c3ccc(OC(F)(F)F)cc3)n2)cc1OC [Compound 1532] | 1 to 50 | 10 to 100
14 | COc1ccc(C(=O)NCC(=O)c2ccc(OC)c(-c3cn[nH]c3)n2)cc1OC [Compound 1533] | 1 to 50 | > 100
15 | COc1ccc(C(=O)NCC(=O)c2ccc(OC)c(-c3ccc4[nH]cnc4c3)n2)cc1OC [Compound 1534] | 1 to 50 | > 100
16 | COc1ccc(C(=O)NCC(=O)c2ccc(OC)c(-c3ccnc(F)c3)n2)cc1OC [Compound 1535] | 1 to 50 | > 100
17 | COc1ccc(C(=O)NCC(=O)c2ccc(OC)c(-c3ccnc(Cl)c3)n2)cc1OC [Compound 1536] | 1 to 50 | > 100
18 | COc1ccc(C(=O)NCC(=O)c2ccc(OC)c(-c3csc(C(=O)O)c3)n2)cc1OC [Compound 1537] | 1 to 50 | > 100
19 | COc1ccc(C(=O)NCC(=O)c2ccc(OC)c(-c3ccc4cn(C)nc4c3)n2)cc1OC [Compound 1538] | 1 to 50 | > 100
20 | COc1ccc(C(=O)NCC(=O)c2ccc(OC)c(-c3ccc4scnc4c3)n2)cc1OC [Compound 1539] | 1 to 50 | > 100

Row | Structure (SMILES) | EC50 [1] [µM] | CC50 at 5 days [2] [µM]
21 | COc1ccc(C(=O)NCC(=O)c2ccc(OC)c(-c3cccnc3C)n2)cc1OC [Compound 1540] | 1 to 50 | > 100
22 | COc1ccc(C(=O)NCC(=O)c2ccc(OC)c(-c3c[nH]nc3C)n2)cc1OC [Compound 1541] | 1 to 50 | > 100
23 | COc1cc(C(=O)NCC(=O)c2ccc(OC)c(-c3ccc(F)cc3F)n2)ccc1OCCO [Compound 1601] | < 1 | > 100
24 | COc1cc(C(=O)NCC(=O)c2ccc(OC)c(-c3ccc(OC(F)(F)F)cc3)n2)ccc1OCCO [Compound 1602] | < 1 | > 100
25 | COc1cc(C(=O)NCC(=O)c2ccc(OC)c(-c3ccc(S(C)(=O)=O)cc3)n2)ccc1OCCO [Compound 1604] | 1 to 50 | > 100
26 | COc1cc(C(=O)NCC(=O)c2ccc(OC)c(-c3ccc(C(F)(F)F)cc3)n2)ccc1OCCO [Compound 1605] | < 1 | 10 to 100
27 | COc1cc(C(=O)NCC(=O)c2ccc(OC)c(-c3ccc(C)cc3)n2)ccc1OCCO [Compound 1606] | < 1 | > 100
28 | COc1cc(C(=O)NCC(=O)c2ccc(OC)c(-c3ccc(Cl)cc3)n2)ccc1OCCO [Compound 1607] | < 1 | 10 to 100
29 | COc1cc(C(=O)NCC(=O)c2ccc(OC)c(-c3ccc(F)cc3)n2)ccc1OCCO [Compound 1608] | < 1 | 10 to 100
30 | COc1cc(C(=O)NCC(=O)c2ccc(OC)c(-c3csc4ccc(F)cc34)n2)ccc1OCCO [Compound 1609] | < 1 | > 100
31 | COc1cc(C(=O)NCC(=O)c2ccc(OC)c(-c3ccnc(F)c3)n2)ccc1OCCO [Compound 1610] | 1 to 50 | > 100
32 | COc1cc(C(=O)NCC(=O)c2ccc(OC)c(-c3ccnc(Cl)c3)n2)ccc1OCCO [Compound 1611] | 1 to 50 | > 100
33 | COc1cc(C(=O)NCC(=O)c2ccc(OC)c(-c3ccc(Cl)c(F)c3)n2)ccc1OCCO [Compound 1612] | < 1 | > 100
34 | COc1cc(C(=O)NCC(=O)c2ccc(OC)c(-c3ccccc3)n2)ccc1OCCO [Compound 1613] | < 1 | > 100
35 | COc1cc(C(=O)NCC(=O)c2ccc(OC)c(-c3ccc(F)c(C(F)(F)F)c3)n2)ccc1OCCO [Compound 1614] | < 1 | > 100
36 | COc1cc(C(=O)NCC(=O)c2ccc(OC)c(-c3ccc(F)c(C#N)c3)n2)ccc1OCCO [Compound 1615] | 1 to 50 | > 100
37 | COc1cc(C(=O)NCC(=O)c2ccc(OC)c(-c3ccc(Cl)c(Cl)c3)n2)ccc1OCCO [Compound 1616] | < 1 | > 100
38 | COc1cc(C(=O)NCC(=O)c2ccc(OC)c(-c3ccc(F)c(F)c3)n2)ccc1OCCO [Compound 1618] | < 1 | > 100
39 | COc1cc(C(=O)NCC(=O)c2ccc(OC)c(-c3ccncc3)n2)ccc1OCCO [Compound 1619] | 1 to 50 | > 100
40 | COc1cc(C(=O)NCC(=O)c2ccc(OC)c(-c3csc4ccc(C#N)cc34)n2)ccc1OCCO [Compound 1620] | 1 to 50 | 10 to 100

Row | Structure (SMILES) | EC50 [1] [µM] | CC50 at 5 days [2] [µM]
41 | COc1cc(C(=O)NCC(=O)c2ccc(OC)c(-c3csc4ccncc34)n2)ccc1OCCO [Compound 1621] | 1 to 50 | > 100
42 | COc1cc(C(=O)NCC(=O)c2ccc(OC)c(-c3ccc(F)c(Br)c3)n2)ccc1OCCO [Compound 1622] | < 1 | > 100
43 | COc1cc(C(=O)NCC(=O)c2ccc(OC)c(-c3ccc(Cl)c(C(F)(F)F)c3)n2)ccc1OCCO [Compound 1623] | < 1 | > 100
44 | COc1ccc(C(=O)NCC(=O)c2ccc3cccnc3c2)cc1OC [Compound 1700] | 1 to 50 | > 100
45 | COc1ccc(C(=O)NCC(=O)c2ccc3ccccc3n2)cc1OC [Compound 1701] | 1 to 50 | > 100
46 | COc1ccc(C(=O)N2CCCCC2C(=O)c2ccc(OC)c(-c3csc4c(F)cccc34)n2)cc1OC (centres unmarked) [Compound 1800] | 1 to 50 | 10 to 100
47 | COc1ccc(C(=O)NC(C)CC(=O)c2ccc(OC)c(-c3csc4c(F)cccc34)n2)cc1OC (centres unmarked) [Compound 1801] | 1 to 50 | > 100
48 | COc1cc(C(=O)N[C@@H](CCO)C(=O)c2ccc(OC)c(-c3csc4c(F)cccc34)n2)ccc1OCCO [Compound 1803] | < 1 | 10 to 100
49 | COc1cc(C(=O)N[C@H](CCO)C(=O)c2ccc(OC)c(-c3ccc(F)c(C(F)(F)F)c3)n2)ccc1OCCO [Compound 1806] | < 1 | > 100
50 | COc1cc(C(=O)N[C@@H](CCO)C(=O)c2ccc(OC)c(-c3ccc(F)c(C(F)(F)F)c3)n2)ccc1OCCO [Compound 1807] | < 1 | > 100
51 | COc1cc(C(=O)NC(C)C(=O)c2ccc(OC)c(-c3csc4c(F)cccc34)n2)ccc1OCCO (centres unmarked) [Compound 1808] | < 1 | 10 to 100
52 | COc1cc(C(=O)N[C@@H](C)C(=O)c2ccc(OC)c(-c3ccc(F)c(C(F)(F)F)c3)n2)ccc1OCCO [Compound 1812] | < 1 | 10 to 100
53 | COc1ccc(C(=O)NC(CO)C(=O)c2ccc(OC)c(-c3csc4c(F)cccc34)n2)cc1OC (centres unmarked) [Compound 1816] | < 1 | > 100
54 | COc1cc(C(=O)N[C@@H](COC(C)(C)C)C(=O)c2ccc(OC)c(-c3csc4c(F)cccc34)n2)ccc1OCCO [Compound 1819] | < 1 | 10 to 100
55 | COc1ccc(C(=O)NC(CCC(=O)O)C(=O)c2ccc(OC)c(-c3csc4c(F)cccc34)n2)cc1OC (centres unmarked) [Compound 1821] | < 1 | 10 to 100
56 | COc1ccc(C(=O)N2CCCC2C(=O)c2ccc(OC)c(-c3csc4c(F)cccc34)n2)cc1OC (centres unmarked) [Compound 1822] | 1 to 50 | 10 to 100
57 | COc1ccc(C(=O)NC(C)C(=O)c2ccc(OC)c(-c3csc4c(F)cccc34)n2)cc1OC (centres unmarked) [Compound 1824] | < 1 | > 100
58 | COc1cc(C(=O)N[C@@H](CO)C(=O)c2ccc(OC)c(-c3csc4c(F)cccc34)n2)ccc1OCCO [Compound 1830] | < 1 | > 100
